In test [1] the test system is SH-SY5Y. Nature of the test: Neuroprotective activity against human SH-SY5Y cells assessed as effect on NMDA mediated cell damage at 0.5 uM by MTT assay relative to control. It is filed as functional. A general note: Tetrazolium dyes change colour on reduction, which living cells bring about.
The subject of test [2] is SH-SY5Y. Nature of the test: Neuroprotective activity against human SH-SY5Y cells assessed as effect on NMDA mediated cell damage at 0.05 uM by MTT assay relative to control. It is filed as functional.
For test [3], the system named is SH-SY5Y. Nature of the test: Neuroprotective activity against human SH-SY5Y cells assessed as effect on NMDA mediated cell damage at 5 uM by MTT assay relative to control. It is filed as functional.
Test [4] deals with Glutamate receptor ionotropic, NMDA 2B (Homo sapiens, UniProt Q05586+Q13224). Description: Antagonist activity at NMDA receptor NR2B subunit (unknown origin).

Structures are written as SMILES.

Glutamate receptor ionotropic, NMDA 2B, sequence (Q13224 whole entry, one chain of several): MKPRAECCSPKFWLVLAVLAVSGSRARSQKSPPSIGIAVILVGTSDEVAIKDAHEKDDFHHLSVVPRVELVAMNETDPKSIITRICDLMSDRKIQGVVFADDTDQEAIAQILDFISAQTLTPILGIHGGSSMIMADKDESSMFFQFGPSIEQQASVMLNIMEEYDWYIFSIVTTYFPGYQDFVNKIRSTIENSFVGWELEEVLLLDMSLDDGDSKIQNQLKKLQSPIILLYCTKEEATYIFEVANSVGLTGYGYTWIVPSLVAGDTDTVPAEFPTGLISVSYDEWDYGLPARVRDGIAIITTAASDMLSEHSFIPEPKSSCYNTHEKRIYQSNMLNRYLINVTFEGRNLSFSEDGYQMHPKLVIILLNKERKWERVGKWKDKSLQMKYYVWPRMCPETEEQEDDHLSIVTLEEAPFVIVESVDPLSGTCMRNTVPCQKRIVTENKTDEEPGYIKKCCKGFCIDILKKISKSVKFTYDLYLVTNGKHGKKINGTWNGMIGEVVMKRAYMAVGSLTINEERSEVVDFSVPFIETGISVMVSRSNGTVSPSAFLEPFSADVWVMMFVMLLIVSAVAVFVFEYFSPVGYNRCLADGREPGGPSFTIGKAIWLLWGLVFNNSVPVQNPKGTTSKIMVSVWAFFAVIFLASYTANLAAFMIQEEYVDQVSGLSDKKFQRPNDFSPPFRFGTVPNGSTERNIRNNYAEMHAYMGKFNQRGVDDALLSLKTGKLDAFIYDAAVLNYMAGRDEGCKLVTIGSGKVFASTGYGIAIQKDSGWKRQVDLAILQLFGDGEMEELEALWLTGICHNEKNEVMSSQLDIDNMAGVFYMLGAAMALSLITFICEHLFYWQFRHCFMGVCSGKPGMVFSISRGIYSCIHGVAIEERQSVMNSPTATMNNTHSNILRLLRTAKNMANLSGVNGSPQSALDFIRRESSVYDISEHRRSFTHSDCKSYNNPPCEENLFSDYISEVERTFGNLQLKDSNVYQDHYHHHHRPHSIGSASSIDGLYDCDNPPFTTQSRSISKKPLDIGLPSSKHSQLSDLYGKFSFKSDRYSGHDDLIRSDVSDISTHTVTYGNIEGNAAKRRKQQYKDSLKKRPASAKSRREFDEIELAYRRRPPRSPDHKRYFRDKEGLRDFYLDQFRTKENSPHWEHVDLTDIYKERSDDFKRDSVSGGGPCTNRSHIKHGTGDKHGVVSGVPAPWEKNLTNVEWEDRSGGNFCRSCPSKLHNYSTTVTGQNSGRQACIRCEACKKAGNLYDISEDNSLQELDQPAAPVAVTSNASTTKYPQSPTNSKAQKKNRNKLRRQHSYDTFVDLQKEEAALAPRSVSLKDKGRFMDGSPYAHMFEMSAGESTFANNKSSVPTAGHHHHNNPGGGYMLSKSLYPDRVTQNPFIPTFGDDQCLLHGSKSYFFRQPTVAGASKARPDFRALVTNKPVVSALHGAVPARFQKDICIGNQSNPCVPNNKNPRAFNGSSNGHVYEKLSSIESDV

On to `O=C(NNC(=O)[C@@H]1CCC2=Nc3ccc(Cl)cc3CN21)c1ccc(O)cc1`, for which the Activity is given as 22.55% with SH-SY5Y [1], 16.03% with SH-SY5Y [2] and 22.58% in the test on SH-SY5Y [3].
For `O=C(NNC(=O)[C@@H]1CCC2=Nc3ccc(Br)cc3CN21)c1ccc(F)cc1` the same measures were 19.88%, 23.87% and 19.48%.
Turning to `O=C(NNC(=O)[C@@H]1CCC2=Nc3ccc(Br)cc3CN21)c1ccccc1`, the Activity in the test with SH-SY5Y [1] turned out to be 20.92%; in the test on SH-SY5Y [2] it was 7.13%; with SH-SY5Y [3] it was 18.22%.
For `O=C(NCCc1cccc(O)c1)[C@@H]1CCC2=Nc3ccc(Br)cc3CN21` the same measures were 28.87%, 28.73% and 25.35%.
As for `O=C(NCCc1cccc(O)c1)[C@@H]1CCC2=Nc3ccccc3CN21`, the Activity was found to be 29.17% in the test with SH-SY5Y [1], 29.63% with SH-SY5Y [2] and 24.42% in the test on SH-SY5Y [3].
The like results for `O=C(NCCc1ccc(F)cc1)[C@@H]1CCC2=Nc3ccc(Br)cc3CN21` were, in that order, 7.08%, 4.05% and -2.81%.
On to `O=C(NCCc1ccc(F)cc1)[C@@H]1CCC2=Nc3ccc(Cl)cc3CN21`, for which the Activity in the test on SH-SY5Y [1] came to 27.96%; in the test on SH-SY5Y [2], 13.45%; in the test on SH-SY5Y [3], 26.14%.
On to `Nc1ccc(C(=O)NNC(=O)[C@@H]2CCC3=Nc4ccc(Br)cc4CN32)cc1`, for which the Activity with SH-SY5Y [1] was 24.22%; with SH-SY5Y [2] it was 25.12%; in the test with SH-SY5Y [3], 15.62%.
For `Nc1ccc(C(=O)NNC(=O)[C@@H]2CCC3=Nc4ccc(Cl)cc4CN32)cc1` the same measures were 25.28%, 30.71% and 20.43%.
For `Nc1ccc(CCNC(=O)[C@@H]2CCC3=Nc4ccc(Br)cc4CN32)cc1` the same measures were -15.08%, -15.74% and -11.03%.
As to `Nc1ccc(CCNC(=O)[C@@H]2CCC3=Nc4ccc(Cl)cc4CN32)cc1`, the results for the Activity in the test with SH-SY5Y [1], in the test with SH-SY5Y [2] and in the test on SH-SY5Y [3] were -16.58%, -5.03% and -15.32%, respectively.
As for `O=C(NCCc1ccc(O)cc1)[C@@H]1CCC2=Nc3ccc(Cl)cc3CN21`, the figures for the Activity in the test with SH-SY5Y [1], with SH-SY5Y [2] and in the test on SH-SY5Y [3] were 28.33%, 28.93% and 21.32%, respectively.
With `O=C(NCCc1ccccc1)[C@@H]1CCC2=Nc3ccc(Br)cc3CN21`, the Activity turned out to be 7.54% in the test on SH-SY5Y [1], 11.08% in the test on SH-SY5Y [2] and 10.59% in the test on SH-SY5Y [3].
Consider `COc1ccc(CCNC(=O)[C@@H]2CCC3=Nc4ccc(Cl)cc4CN32)cc1`, for which the Activity with SH-SY5Y [1] worked out at 30.19%; in the test on SH-SY5Y [2], 17.35%; in the test with SH-SY5Y [3], 30.66%.
The like results for `COc1ccc(C(=O)NNC(=O)[C@@H]2CCC3=Nc4ccc(Cl)cc4CN32)cc1` were, in that order, 20.2%, 19.6% and 12.17%.
For the compound `O=C(NNC(=O)[C@@H]1CCC2=Nc3ccc(Cl)cc3CN21)c1ccc(F)cc1`, the Activity with SH-SY5Y [1] was 20.68%; in the test on SH-SY5Y [2] it was 22.58%; with SH-SY5Y [3], 17.26%.
For the compound `O=C(NNC(=O)[C@@H]1CCC2=Nc3ccc(Cl)cc3CN21)c1ccccc1`, the Activity in the test with SH-SY5Y [1] is 24.25%; with SH-SY5Y [2], 26.91%; with SH-SY5Y [3], 19.76%.
Take `O=C(NCCc1ccccc1)[C@@H]1CCC2=Nc3ccc(Cl)cc3CN21`: the Activity is recorded as 5.78% in the test on SH-SY5Y [1], 13.21% in the test on SH-SY5Y [2] and 10.01% with SH-SY5Y [3].
The like results for `COc1ccc(C(=O)NNC(=O)[C@@H]2CCC3=Nc4ccccc4CN32)cc1` were, in that order, 17.74%, 12.59% and 22.42%.
For `COc1ccc(CCNC(=O)[C@@H]2CCC3=Nc4ccc(Br)cc4CN32)cc1`, the values for the Activity in the test with SH-SY5Y [1], in the test on SH-SY5Y [2] and with SH-SY5Y [3] were 27.25%, 27.75% and 17.27%, respectively.
Take `COc1ccc(C(=O)NNC(=O)[C@@H]2CCC3=Nc4ccc(Br)cc4CN32)cc1`: the Activity with SH-SY5Y [1] stood at 15.94%; in the test on SH-SY5Y [2] it was 9.01%; in the test with SH-SY5Y [3], 19.77%.
The like results for `O=C(NCCc1cccc(O)c1)[C@@H]1CCC2=Nc3ccc(Cl)cc3CN21` were, in that order, 28.02%, 23.62% and 29.37%.
In the case of `Cc1nccn1Cc1cc(-c2ccc(F)c(C(F)F)c2)cnn1` [EVT-101 FREE BASE], the IC50 (usually the concentration needed to halve the response being measured) in test [4] was 17 nM.
In the case of `CC(C(O)c1ccc(O)cc1)N1CCC(Cc2ccccc2)CC1` (stereo not given) [IFENPRODIL], the results for the Activity with SH-SY5Y [1], with SH-SY5Y [2] and with SH-SY5Y [3] were 22.57%, 16.4% and 35.81%, respectively.

Values taken from ChEMBL document CHEMBL5252602, “Identification and in silicon binding study of a novel NR2B selective NMDAR antagonist” (Bioorg Med Chem Lett, 2023).
